Data on 1 compound can be found in US20240239735A1, “ACID ADDITION SALT OF ROCK INHIBITOR, AND CRYSTAL FORM, COMPOSITION AND PHARMACEUTICAL USE THEREOF” (WUHAN LL SCIENCE AND TECHNOLOGY DEVELOPMENT CO., LTD., priority 2021, published 2024).

Common to all, as to format: physicochemical
Data set [1] is described as follows: Hygroscopicity test by dynamic vapor sorption (DVS). The following applies: from 0.0% RH to 95% RH.
A short description of data set [2]: Solid state stability test (HPLC purity, XRPD). To be noted: 265 nm; for Purity (Area %): 1 week. How it is done:
(§1) The instrument used for HIPLC analysis was Agilent TIPLC 1260 series.
The samples after being stored 0 days, 1 week, and 2 weeks were taken and each dissolved in a diluent to prepare about 1.0 mg/mL solution, which was tested for chemical stability by HPLC. The solid sample after being stored for 1 week or 2 weeks was tested for physical stability by XRPD.

The nature of data set [3]: Solubility test in biologically relevant media at 37° C. (HPLC, pH, XRPD of filter cake). The procedure: as §1
The suspension was incubated by shaking on a shaker at 100 rpm at 37° C. 1 mL of the dispersion was taken at 0.5 h, 2 h, and 24 h, and filtered. The filtrate was tested for the solubility by HPLC and for the pH value by a pH meter. The filter cake was characterized for the crystal form by XRPD.

Data set [4] in a line: Hygroscopicity test by dynamic vapor sorption (DVS). How it is done: The sample was subjected to water adsorption/desorption tests using a Vsorp (ProUmid GmbH & Co. KG, Germany) water adsorption analyzer. The sample was placed in a tared sample tray, and the change in the sample mass with humidity (0-90% RH) at 25° C. was recorded.

As usually defined, the Solubility is how much of the substance goes into solution per volume. The low end stands for a poorly soluble substance, the high end for a readily soluble substance. For `COc1cccc(CNC(=O)N2CCc3cc(-c4c[nH]nc4N)c(F)cc32)c1` [Fumarate crystal form II], the DVS water absorbed result in data set [1] was “about 0.2%”. Moreover, in data set [2] (0 weeks, HPLC method of 7-day test), the “Initial purity (Area %)” value was 99.30 Area %. Besides, the “Purity (Area %)” value in data set [2] (40° C./75% RH open) and in data set [2] (60° C./sealed) was 99.20 Area % each time. The Solubility in data set [3] (FaSSIF, 37° C., 24 h) was determined as 0.28 µg/mL; in data set [3] (FeSSIF, 37° C., 24 h), 132.92 µg/mL; in data set [3] (SGF, 37° C., 24 h) it was 1425.24 µg/mL. Also, the pH of filtrate in data set [3] (FaSSIF, 24 h (0 h: 6.50)) amounted to 6.2; in data set [3] (FeSSIF, 24 h (0 h: 5.00)), 4.9; in data set [3] (SGF, 24 h (0 h: 1.20)), 1.2. Moreover, the “XRPD (crystal form of filter cake)” value in data set [3] (SGF, 37° C., 24 h) was “Remains unchanged”. The “XRPD pattern / crystal form before and after the DVS test” value in data set [4] is on record as “crystal form remained unchanged”. In data set [4] (DVS, assessment in words), the Hygroscopicity entry was “non-hygroscopic”.
